According to ChEMBL document CHEMBL1201862, “PubChem BioAssay data set” (2004):
Where a name gives a salt, the structure may show the parent alone.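 Results reflect a 48-hour exposure of cells in 96-well plates to compound at five concentrations. The concentration for 50% growth inhibition is given as GI50.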 Active and inactive are the calls of the source. Cut-off read from the data, not from the text of the source: active = GI50 up to about 1.1 µM and inactive = higher.

How the values were obtained:
Assay in all cases: growth of human tumour cells (NCI), 48 h
HCC 2998 = test system: HCC 2998
HL-60 = test system: HL-60
HT-29 = test system: HT-29
Hs-578T = test system: Hs-578T
K562 = test system: K562
M14 = test system: M14
MCF7 = test system: MCF7
MOLT-4 = test system: MOLT-4
NCI-H23 = test system: NCI-H23
NCI-H522 = test system: NCI-H522
NCI/ADR-RES = test system: NCI/ADR-RES
OVCAR-8 = test system: OVCAR-8
PC-3 = test system: PC-3
SK-MEL-28 = test system: SK-MEL-28
SK-MEL-5 = test system: SK-MEL-5
SN12C = test system: SN12C
SNB-19 = test system: SNB-19
SR = test system: SR
SNB-75 = test system: SNB-75
SK-OV-3 = test system: SK-OV-3

Compound | GI50 (HCC 2998) | GI50 (HL-60) | GI50 (HT-29) | GI50 (Hs-578T) | GI50 (K562) | GI50 (M14) | GI50 (MCF7) | GI50 (MOLT-4) | GI50 (NCI-H23) | GI50 (NCI-H522) | GI50 (NCI/ADR-RES) | GI50 (OVCAR-8) | GI50 (PC-3) | GI50 (SK-MEL-28) | GI50 (SK-MEL-5) | GI50 (SN12C) | GI50 (SNB-19) | GI50 (SR) | GI50 (SNB-75) | GI50 (SK-OV-3)
COc1ccc(-c2c(C#N)c(N)nc(S)c2C#N)cc1 | 23.4 µM (inactive) | 23.1 µM (inactive) | 48.6 µM (inactive) | 19.1 µM (inactive) | 26.5 µM (inactive) | 30 µM (inactive) | 39.2 µM (inactive) | 17.1 µM (inactive) | 38.3 µM (inactive) | 20.5 µM (inactive) | 50 µM (inactive) | 36.7 µM (inactive) | 27.5 µM (inactive) | 37.7 µM (inactive) | 26.2 µM (inactive) | 29.1 µM (inactive) | 57.7 µM (inactive) | 18.3 µM (inactive) | – | –
O=CC1C(Cl)=Nc2nc3ccccc3n2C1c1ccccc1 (stereo not drawn) | 18.2 µM (inactive) | 20 µM (inactive) | 19.1 µM (inactive) | 0.741 µM (active) | 15.2 µM (inactive) | 23.7 µM (inactive) | 20.4 µM (inactive) | – | 23.4 µM (inactive) | 14.3 µM (inactive) | 24 µM (inactive) | 21.4 µM (inactive) | 17.3 µM (inactive) | 14.3 µM (inactive) | 19.6 µM (inactive) | 20.7 µM (inactive) | 25.5 µM (inactive) | 0.861 µM (active) | 17 µM (inactive) | –
O=C(CCC1CCCCN1)Nc1ccc2c(c1)C(=O)c1ccc(NC(=O)CCN3CCCCC3)cc1C2=O (stereo not drawn) | > 10 µM (inactive) | 5.77 µM (inactive) | 2.52 µM (inactive) | > 10 µM (inactive) | 1.83 µM (inactive) | 1.32 µM (inactive) | > 10 µM (inactive) | 1.95 µM (inactive) | 2.21 µM (inactive) | 1.38 µM (inactive) | > 10 µM (inactive) | 2.37 µM (inactive) | > 10 µM (inactive) | 1.7 µM (inactive) | 1.4 µM (inactive) | 1.91 µM (inactive) | 7.19 µM (inactive) | 0.493 µM (active) | 2.62 µM (inactive) | 5.3 µM (inactive)
Fc1ccc2c(c1)nc1n2C(c2c(Cl)cccc2Cl)SC1 (stereo not drawn) | 15.7 µM (inactive) | 12.3 µM (inactive) | 16 µM (inactive) | 18.3 µM (inactive) | – | 16.4 µM (inactive) | 15.1 µM (inactive) | 8.02 µM (inactive) | 13.1 µM (inactive) | 14.7 µM (inactive) | 13.4 µM (inactive) | 15.6 µM (inactive) | 14.7 µM (inactive) | 10.8 µM (inactive) | 8.71 µM (inactive) | 17.3 µM (inactive) | 14.1 µM (inactive) | 3.94 µM (inactive) | 13 µM (inactive) | 14.8 µM (inactive)
O=C1c2ccccc2/C=C\C(c2ccccc2)=N/N1c1ccccc1Cl | 30.3 µM (inactive) | 12.7 µM (inactive) | 17.5 µM (inactive) | 34.5 µM (inactive) | 5.26 µM (inactive) | 21.9 µM (inactive) | 21.5 µM (inactive) | 15.3 µM (inactive) | 28.8 µM (inactive) | 12.2 µM (inactive) | 15.9 µM (inactive) | 27.4 µM (inactive) | 6.73 µM (inactive) | 24 µM (inactive) | 13.4 µM (inactive) | 23 µM (inactive) | 19.1 µM (inactive) | > 10 µM (inactive) | 25.9 µM (inactive) | –
COC(=O)c1c(C)cccc1C1CN=NC12Cc1ccc(C)cc1C2=O (stereo not drawn) | 40.9 µM (inactive) | 21.6 µM (inactive) | 31.8 µM (inactive) | 39.4 µM (inactive) | 29.8 µM (inactive) | 38.8 µM (inactive) | 37.2 µM (inactive) | 27.4 µM (inactive) | 39.2 µM (inactive) | 29.4 µM (inactive) | 23 µM (inactive) | 43.2 µM (inactive) | 39.2 µM (inactive) | 43.4 µM (inactive) | 17.5 µM (inactive) | 48.4 µM (inactive) | 38.1 µM (inactive) | 40.2 µM (inactive) | 57.5 µM (inactive) | –
COc1ccc(P2(=S)OCCOP(=S)(c3ccc(OC)cc3)S2)cc1 (stereo not drawn) | 2.87 µM (inactive) | 2.64 µM (inactive) | 2.64 µM (inactive) | 5.48 µM (inactive) | 2.51 µM (inactive) | 5.14 µM (inactive) | 3.62 µM (inactive) | 2.87 µM (inactive) | 4.7 µM (inactive) | 2.2 µM (inactive) | 4.41 µM (inactive) | 3.47 µM (inactive) | 2.26 µM (inactive) | 18.4 µM (inactive) | 3.02 µM (inactive) | 2.56 µM (inactive) | 3.71 µM (inactive) | 3.6 µM (inactive) | > 52.7 µM (inactive) | –
NNC(=O)C(O)C(O)C(O)CO (stereo not drawn) | > 100 µM (inactive) | > 100 µM (inactive) | > 100 µM (inactive) | > 100 µM (inactive) | > 100 µM (inactive) | > 100 µM (inactive) | > 100 µM (inactive) | – | > 100 µM (inactive) | > 100 µM (inactive) | > 100 µM (inactive) | > 100 µM (inactive) | > 100 µM (inactive) | > 100 µM (inactive) | > 100 µM (inactive) | > 100 µM (inactive) | > 100 µM (inactive) | 67.8 µM (inactive) | > 100 µM (inactive) | > 100 µM (inactive)
COc1cc(OCc2ccc3nc(-c4ccccc4)c(Cl)nc3c2)cc(OC)c1OC | > 100 µM (inactive) | 24.5 µM (inactive) | > 100 µM (inactive) | 39.6 µM (inactive) | – | > 100 µM (inactive) | 59.7 µM (inactive) | > 100 µM (inactive) | 40.3 µM (inactive) | 33.3 µM (inactive) | 58.1 µM (inactive) | > 100 µM (inactive) | > 100 µM (inactive) | > 100 µM (inactive) | 20.5 µM (inactive) | > 100 µM (inactive) | 52.7 µM (inactive) | > 100 µM (inactive) | 48.4 µM (inactive) | –
O=C1OC(c2ccccc2)=N/C1=C\c1ccc(Cl)cc1 | > 100 µM (inactive) | > 100 µM (inactive) | > 100 µM (inactive) | > 100 µM (inactive) | > 100 µM (inactive) | > 100 µM (inactive) | > 100 µM (inactive) | > 100 µM (inactive) | > 100 µM (inactive) | 50.6 µM (inactive) | 66.2 µM (inactive) | > 100 µM (inactive) | > 100 µM (inactive) | > 100 µM (inactive) | > 100 µM (inactive) | > 100 µM (inactive) | > 100 µM (inactive) | > 100 µM (inactive) | > 100 µM (inactive) | > 100 µM (inactive)
CC(O)(C(=O)N(O)c1ccc(Cl)cc1)c1ccc(Cl)cc1 (stereo not drawn) | 13 µM (inactive) | 14.7 µM (inactive) | 31 µM (inactive) | 16.9 µM (inactive) | 17.3 µM (inactive) | 34 µM (inactive) | 35.4 µM (inactive) | 12.5 µM (inactive) | 23.4 µM (inactive) | 18.6 µM (inactive) | 25.6 µM (inactive) | 27.2 µM (inactive) | 22.1 µM (inactive) | 33.3 µM (inactive) | 18.7 µM (inactive) | 37.4 µM (inactive) | 48.2 µM (inactive) | 13.8 µM (inactive) | – | 33.1 µM (inactive)
CC(=O)OCC(OC(C)=O)C1C[C@H]2O[C@@H]3[C@H](C[C@H]2O1)O[C@@]1(C[C@@H]3C)C[C@H](C)[C@@H]2O[C@]3(C[C@@H]2O1)C[C@H]1O[C@H]2[C@H](C)[C@H]4OC(=O)C[C@H]5CC[C@@H]6OC7[C@H]8O[C@]9(CC[C@H]%10CC(=O)[C@H](CC[C@H]%11C[C@@H](C)C(=O)C(C[C@@H]4O[C@H]2C[C@H]1O3)O%11)O%10)CC8O[C@@H]7[C@@H](O9)[C@H]6O5 (stereo partly drawn) | 0.003 µM (active) | 0.000489 µM (active) | – | 0.00179 µM (active) | 0.00123 µM (active) | 0.00619 µM (active) | 0.00151 µM (active) | 0.0184 µM (active) | 0.00267 µM (active) | 0.00051 µM (active) | 0.102 µM (active) | 0.00964 µM (active) | 0.00337 µM (active) | 0.011 µM (active) | 0.000458 µM (active) | 0.0142 µM (active) | 0.0101 µM (active) | 0.000233 µM (active) | 0.00265 µM (active) | 0.00728 µM (active)
CO[C@H]1C[C@](C)(O)Cc2cc3c(c(O)c21)C(=O)c1c(O)cc2c(c1C3=O)O[C@@H]1O[C@@]2(C)[C@H](O)[C@@H](N(C)C)[C@@H]1O | 2.15 µM (inactive) | 0.115 µM (active) | 1.94 µM (inactive) | 5.25 µM (inactive) | 1.12 µM (inactive) | 1.16 µM (inactive) | 0.103 µM (active) | – | 0.804 µM (active) | 1.04 µM (active) | 10 µM (inactive) | 0.9 µM (active) | 0.661 µM (active) | 5.82 µM (inactive) | 1.16 µM (inactive) | 0.499 µM (active) | 0.434 µM (active) | 0.0282 µM (active) | 0.653 µM (active) | 0.641 µM (active)
CN(C)CCOC(c1ccccc1)c1ccccc1 [DIPHENHYDRAMINE HYDROCHLORIDE] | > 100 µM (inactive) | > 100 µM (inactive) | > 100 µM (inactive) | 66.7 µM (inactive) | > 100 µM (inactive) | 51.2 µM (inactive) | > 100 µM (inactive) | > 100 µM (inactive) | > 100 µM (inactive) | > 100 µM (inactive) | > 100 µM (inactive) | > 100 µM (inactive) | > 100 µM (inactive) | > 100 µM (inactive) | > 100 µM (inactive) | > 100 µM (inactive) | – | 38.5 µM (inactive) | – | –
